Here are results for five molecules from ChEMBL document CHEMBL1811882, “Synthesis and in vitro evaluation of novel pro-drugs for the treatment of nephropathic cystinosis” (Bioorg Med Chem, 2011).

Series [1] is described as follows: Cytotoxicity against cystinotic human fibroblasts at 50 uM after 72 hrs by Alamar blue assay. The series is classed as cell-based. The note with it: fibroblast. For orientation: Resazurin is reduced to fluorescent resorufin, in cell work by metabolically active cells.
A further series concerns Fibroblast. Kind of series: Reduction of intralysosomal cystine in cystinotic human fibroblasts at 50 uM after 24 hrs by Bradford method relative to control. The series is classed as functional, cell-based.

Calls of active or inactive are those of the source. No cut-off for these calls is given here.

As to `NCCS` [CYSTEAMINE], in series [1], the Activity entry was “Non-toxic”. In addition, the outcome in the series on Fibroblast was Active.
The corresponding values for `Cl.Cl.N[C@@H](Cc1ccccc1)C(=O)NCCSSCCNC(=O)CCC(=O)NCCSSCCNC(=O)CCC(=O)NCCSSCCNC(=O)[C@@H](N)Cc1ccccc1` are “Non-toxic” and “Active”.
For `Cl.Cl.NCCSSCCNC(=O)CCC(=O)NCCSSCCNC(=O)CCC(=O)NCCSSCCN`, the Activity entry in series [1] is “Non-toxic”. In addition, the result with Fibroblast was Active.
`Cl.Cl.NCCSSCCNC(=O)CCCC(=O)NCCSSCCNC(=O)CCCC(=O)NCCSSCCN`: in series [1], the Activity result was “Non-toxic”. Moreover, the result in the series with Fibroblast was Active.
`Cl.Cl.N[C@@H](Cc1ccccc1)C(=O)NCCSSCCNC(=O)CCCC(=O)NCCSSCCNC(=O)CCCC(=O)NCCSSCCNC(=O)[C@@H](N)Cc1ccccc1`: in series [1], the Activity result was “Non-toxic”. Further, the outcome in the series on Fibroblast was Active.
